In patent publication US20260015358A1, “BICYCLIC DERIVATIVES, COMPOSITIONS AND USES THEREOF” (Danatlas Pharmaceuticals Co., Ltd., priority 2023, published 2026):

How the values were obtained:
[1] = biological target: T1, WRN [UniPro: Q14191 (WRN_HUMAN), N500-C946] (Homo sapiens (Human), UniProt Q14191); test: WRN ATPase assay (ADP-Glo); assay type: biochemical; conditions: WRN enzymatic activity assay
Procedure: WRN ATPase assay was initiated to evaluate potential inhibitory effect of compounds for ATP hydrolysis activity of WRN protein. WRN [UniPro: Q14191 (WRN_HUMAN), N500-C946] was expressed and purified in insect system and stored at −80° C. in aliquots. […] ADP quantity produced from ATP hydrolysis by WRN catalytic reaction was measured using a commercially available ADP-Glo Assay (ADP-Glo™ Kinase Assay from Promega, 10000 assays, #V9102). […] Compounds dissolved in DMSO (Sigma, D8418) were plated into a 96-well intermediate plate (BioFil, VWP-032-096) for 3-fold serial titration for 10 points using DMSO, and well-to-well transfer the titrated compounds into another 96-well intermediate plate including assay buffer in advance. Shake the 96-well intermediate plate at 600 rpm for 10 min to fully mix. Specifically, a 4× working mixture of WRN was diluted to a concentration of 8 nM in assay buffer. […] After centrifuging at 1000 rpm and shaking at 500 rpm, the assay plate was pre-incubated for 30 min. Then, 5 μL 2×FORKF DNA and ATP working mixture was dispensed into assay plate. Plate was sealed, centrifuged and incubated for an additional 40 min. at 37° C. The reaction was stopped with the addition of 10 μL of the first ADP-Glo reagent and incubated for 40 min. to remove the excess amount of ATP. Afterwards, 20 μL of ATP detection reagent was added and incubated for 30 min. before reading. Luminescence output was recorded using BMG CLARIO star plus reader. Each concentration of compound was tested in duplicates in the assay plate. Average luminescence signal of high control (Wells with 1% DMSO) was calculated as High Control (HC). Average luminescence signal of low control (Wells with no WRN protein) was calculated as Low control (LC).
(§1) IC50 values were determined by fitting the data to the standard 4 parameters with Hill Slope using GraphPad Prism software.

[2] = biological target: T1, WRN [UniPro: Q14191 (WRN_HUMAN), N500-C946]; test: WRN unwinding assay (FORKF DNA, fluorescence); assay type: biochemical; conditions: Table 14
Procedure: WRN unwinding assay was initiated to evaluate potential inhibitory effect of compounds for WEN helicase activity. WRN [UniPro: Q14191 (WRN_HUMAN), N500-C946] was expressed and purified in insect system and stored at −80° C. in aliquots. […] Compounds dissolved in DMSO (Sigma, D8418) were plated into a 96-well intermediate plate (BioFil, VWP-032-096) for 3-fold serial titration for 10 points using DMSO, and well-to-well transfer the titrated compounds into another 96-well intermediate plate including assay buffer in advance. Shake the 96-well intermediate plate at 600 rpm for 10 min. to fully mix. Specifically, a 3× working mixture of WRN was diluted to a concentration of 60 nM in assay buffer. […] After centrifuging at 1000 rpm and shaking at 500 rpm, the assay plate was pre-incubated for 30 min. Then, […] 3×FORKF DNA and ATP working mixture was dispensed into assay plate. Plate was sealed, centrifuged and incubated for an additional 40 min. at 25° C. […] Each concentration of compound was tested in duplicates in the assay plate. Average fluorescence signal of high control (Wells with 1% DMSO) was calculated as High Control (HC). Average fluorescence signal of low control (Wells with no WRN protein) was calculated as Low control (LC).
as §1

T1 sequence (Q14191 500-946): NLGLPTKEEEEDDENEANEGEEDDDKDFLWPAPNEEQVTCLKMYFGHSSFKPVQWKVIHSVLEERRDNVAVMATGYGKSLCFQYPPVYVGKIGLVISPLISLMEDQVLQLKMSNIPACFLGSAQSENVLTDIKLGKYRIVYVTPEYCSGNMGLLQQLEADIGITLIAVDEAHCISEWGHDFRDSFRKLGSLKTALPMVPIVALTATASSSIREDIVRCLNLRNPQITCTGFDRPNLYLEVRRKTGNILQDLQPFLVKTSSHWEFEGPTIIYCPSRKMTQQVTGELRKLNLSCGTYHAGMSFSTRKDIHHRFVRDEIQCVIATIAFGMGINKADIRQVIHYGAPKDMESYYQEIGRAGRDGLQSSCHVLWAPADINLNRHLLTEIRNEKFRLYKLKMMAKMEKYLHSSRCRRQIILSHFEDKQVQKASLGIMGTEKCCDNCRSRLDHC

Structure (SMILES) | IC50 [1] [nM] | IC50 [2] [nM]
CCc1c(N2CCN(C(=O)C(=O)Nc3ncco3)CC2)c(=O)n2nc(C3=CCOCC3)nc2n1CC(=O)Nc1ccc(C(F)(F)F)cc1Cl [Example 226, 2-(4-(4-(2-((2-Chloro-4-(trifluoromethyl)phenyl)amino)-2-oxoethyl)-2-(3,6-dihydro-2H-pyran-4-yl)-5-ethyl-7-oxo-4,7-dihydro-[1,2,4]triazolo[1,5-a]pyrimidin-6-yl)piperazin-1-yl)-N-(oxazol-2-yl)-2-oxoacetamide] | < 100 | < 100
CCc1c(N2CCN(C(=O)CNC(=O)c3ccccc3F)CC2)c(=O)n2nc(C3=CCOCC3)nc2n1CC(=O)Nc1ccc(C(F)(F)F)nc1Cl [Example 163, N-(2-(4-(4-(2-((2-Chloro-6-(trifluoromethyl)pyridin-3-yl)amino)-2-oxoethyl)-2-(3,6-dihydro-2H-pyran-4-yl)-5-ethyl-7-oxo-4,7-dihydro-[1,2,4]triazolo[1,5-a]pyrimidin-6-yl)piperazin-1-yl)-2-oxoethyl)-2-fluorobenzamide] | < 100 | < 100
CCc1c(N2CCN(C(=O)CNC(=O)c3cccc(F)c3N)CC2)c(=O)n2nc(N3CCOCC3)nc2n1CC(=O)Nc1ccc(C(F)(F)F)cc1F [Example 255, 2-Amino-N-(2-(4-(5-Ethyl-4-(2-((2-fluoro-4-(trifluoromethyl)phenyl)amino)-2-oxoethyl)-2-morpholino-7-oxo-4,7-dihydro-[1,2,4]triazolo[1,5-a]pyrimidin-6-yl)piperazin-1-yl)-2-oxoethyl)-3-fluorobenzamide] | < 100 | < 100
CCc1c(N2CCN(C(=O)c3sc4cnccc4c3O)CC2)c(=O)n2nc(C3=CCOCC3)nc2n1CC(=O)Nc1ccc(C(F)(F)F)cc1Cl [Example 74, N-(2-Chloro-4-(trifluoromethyl)phenyl)-2-(2-(3,6-dihydro-2H-pyran-4-yl)-5-ethyl-6-(4-(3-hydroxythieno[2,3-c]pyridine-2-carbonyl)piperazin-1-y1)-7-oxo-[1,2,4]triazolo[1,5-a]pyrimidin-4(7H)-yl)acetamide] | < 100 | < 100
CCc1c(N2CCN(C(=O)CNC(=O)c3ccccc3F)CC2)c(=O)n2nc(C3=CCOCC3)nc2n1CC(=O)Nc1ccc(C(F)(F)F)cc1 [Example 148, N-(2-(4-(2-(3,6-Dihydro-2H-pyran-4-yl)-5-ethyl-7-oxo-4-(2-oxo-2-((4-(trifluoromethyl)phenyl)amino)ethyl)-4,7-dihydro-[1,2,4]triazolo[1,5-a]pyrimidin-6-yl)piperazin-1-yl)-2-oxoethyl)-2-fluorobenzamide] | < 100 | < 100
CCc1c(N2CCN(C(=O)CNC(=O)c3ccccc3)CC2)c(=O)n2nc(Br)nc2n1CC(=O)Nc1ccc(C(F)(F)F)cc1Cl [Example 230, N-(2-(4-(2-Bromo-4-(2-((2-chloro-4-(trifluoromethyl)phenyl)amino)-2-oxoethyl)-5-ethyl-7-oxo-4,7-dihydro-[1,2,4]triazolo[1,5-a]pyrimidin-6-yl)piperazin-1-yl)-2-oxoethyl)benzamide] | – | 100 to 1000
CCc1c(N2CCN(C(=O)CNC(=O)c3ccccc3F)CC2)c(=O)n2nc(C3=CCOCC3)nc2n1CC(=O)Nc1ccc(S(F)(F)(F)(F)F)cc1C [Example 145, N-(2-(4-(2-(3,6-Dihydro-2H-pyran-4-yl)-5-ethyl-4-(2-((2-methyl-4-(pentafluoro-16-sulfanyl)phenyl)amino)-2-oxoethyl)-7-oxo-4,7-dihydro-[1,2,4]triazolo[1,5-a]pyrimidin-6-yl)piperazin-1-yl)-2-oxoethyl)-2-fluorobenzamide] | – | 100 to 1000
CCc1c(N2CCN(C(=O)NS(=O)(=O)C3CC3)CC2)c(=O)n2nc(C3=CCOCC3)nc2n1CC(=O)Nc1ccc(C(F)(F)F)cc1Cl [Example 34, 4-(4-(2-((2-Chloro-4-(trifluoromethyl)phenyl)amino)-2-oxoethyl)-2-(3,6-dihydro-2H-pyran-4-yl)-5-ethyl-7-oxo-4,7-dihydro-[1,2,4]triazolo[1,5-a]pyrimidin-6-yl)-N-(cyclopropylsulfonyl)piperazine-1-carboxamide] | – | 100 to 1000
CCc1c(N2CCN(/C(=N\O)c3ncccc3F)CC2)c(=O)n2nc(C3=CCOCC3)nc2n1CC(=O)Nc1ccc(C(F)(F)F)cc1Cl [Example 21, (Z)—N-(2-Chloro-4-(trifluoromethyl)phenyl)-2-(2-(3,6-dihydro-2H-pyran-4-yl)-5-ethyl-6-(4-((3-fluoropyridin-2-yl) (hydroxyimino)methyl)piperazin-1-yl)-7-oxo-[1,2,4]triazolo[1,5-a]pyrimidin-4(7H)-yl)acetamide] | – | > 1000
CCc1c(N2CCN(C(=O)C(C)O)CC2)c(=O)n2nc(C3=CCOCC3)nc2n1CC(=O)Nc1ccc(C(F)(F)F)cc1Cl (stereo not drawn) [Example 12, N-(2-Chloro-4-(trifluoromethyl)phenyl)-2-(2-(3,6-dihydro-2H-pyran-4-yl)-5-ethyl-6-(4-(2-hydroxypropanoyl)piperazin-1-yl)-7-oxo-[1,2,4]triazolo[1,5-a]pyrimidin-4(7H)-yl)acetamide] | – | 100 to 1000

The remaining lines, values ahead:

IC50 [1] [nM] | IC50 [2] [nM] | Structure (SMILES)
< 100 | < 100 | CCc1c(N2CCN(C(=O)CNC(=O)c3nc(NC)ccc3F)CC2)c(=O)n2nc(C3=CCOCC3)nc2n1CC(=O)Nc1ccc(C(F)(F)F)cc1Cl [Example 361, N-(2-(4-(4-(2-((2-Chloro-4-(trifluoromethyl)phenyl)amino)-2-oxoethyl)-2-(3,6-dihydro-2H-pyran-4-yl)-5-ethyl-7-oxo-4,7-dihydro-[1,2,4]triazolo[1,5-a]pyrimidin-6-yl)piperazin-1-yl)-2-oxoethyl)-3-fluoro-6-(methylamino) picolinamide]
< 100 | < 100 | CCc1c(N2CCN(C(=O)CNC(=O)c3nccs3)CC2)c(=O)n2nc(C3=CCOCC3)nc2n1CC(=O)Nc1ccc(C(F)(F)F)cc1F [Example 216, N-(2-(4-(2-(3,6-Dihydro-2H-pyran-4-yl)-5-ethyl-4-(2-((2-fluoro-4-(trifluoromethyl)phenyl)amino)-2-oxoethyl)-7-oxo-4,7-dihydro-[1,2,4]triazolo[1,5-a]pyrimidin-6-yl)piperazin-1-yl)-2-oxoethyl)thiazole-2-carboxamide]
< 100 | < 100 | CCc1c(N2CCN(C(=O)CNC(=O)c3ccnc(O)c3)CC2)c(=O)n2nc(C3=CCOCC3)nc2n1CC(=O)Nc1ccc(C(F)(F)F)cc1Cl [Example 279, N-(2-(4-(4-(2-((2-Chloro-4-(trifluoromethyl)phenyl)amino)-2-oxoethyl)-2-(3,6-dihydro-2H-pyran-4-yl)-5-ethyl-7-oxo-4,7-dihydro-[1,2,4]triazolo[1,5-a]pyrimidin-6-yl)piperazin-1-yl)-2-oxoethyl)-2-hydroxyisonicotinamide]
< 100 | < 100 | CCc1c(N2CCN(C(=O)CNC(=O)c3cncs3)CC2)c(=O)n2nc(C3=CCOCC3)nc2n1CC(=O)Nc1ccc(C(F)(F)F)cc1Cl [Example 268, N-(2-(4-(4-(2-((2-Chloro-4-(trifluoromethyl)phenyl)amino)-2-oxoethyl)-2-(3,6-dihydro-2H-pyran-4-yl)-5-ethyl-7-oxo-4,7-dihydro-[1,2,4]triazolo[1,5-a]pyrimidin-6-yl)piperazin-1-yl)-2-oxoethyl)thiazole-5-carboxamide]
– | 100 to 1000 | CCc1c(N2CCN(C(=O)CNS(=O)(=O)CC)CC2)c(=O)n2nc(C3=CCOCC3)nc2n1CC(=O)Nc1ccc(C(F)(F)F)cc1Cl [Example 39, N-(2-Chloro-4-(trifluoromethyl)phenyl)-2-(2-(3,6-dihydro-2H-pyran-4-yl)-5-ethyl-6-(4-((ethylsulfonyl)glycyl)piperazin-1-yl)-7-oxo-[1,2,4]triazolo[1,5-a]pyrimidin-4(7H)-yl)acetamide]
